Experimental data: article PMC11094793, “Discovery of LLC0424 as a Potent and Selective in Vivo NSD2 PROTAC Degrader” (Journal of Medicinal Chemistry, 2024)

Legend:
NSD1 = target: T1, NSD1 (Homo sapiens, UniProt Q96L73); assay: Selectivity immunoblotting in SEM cells: NSD1; type: cell-based; details: 2 μM, 8 h
T1 construct: endogenous in cells; host or cells: SEM
Experimental: (§1) We conducted a global proteomic assay using tandem mass tags (TMT) labeled mass-spectrometry to unbiasedly quantify the protein change upon LLC0424 treatment in VCaP and RPMI-8402 cells. […] We further used SEM cell line to cross-validate the selectivity of LLC0424 for NSD2 over NSD1 and NSD3 as well as CRBN neo-substrates IKZF1, IKZF3, GSPT1, and CK-1α using immunoblotting. […] When we increased the treatment time of LLC0424 in SEM cells, we observed mild decrease of GSPT1 from 12 h (SI, Figure S3F).
(§2) After treatment, the cultured cells were collected and rinsed with phosphate-buffered saline (PBS) in room temperature. The cells were treated with RIPA buffers (ThermoFisher Scientific) supplemented with Halt Protease and Phosphatase Inhibitor Cocktail (ThermoFisher Scientific). After sonication and centrifugation, the total amount of protein in the cell lysates was measured by Pierce Bovine Serum Albumin Standard Pre-Diluted Set (ThermoFisher Scientific). After mixed with LDS-sample buffer (Invitrogen) supplemented with Sample Reducing Agent (Invitrogen) and heated in 70 °C for 10 min, equal amount of protein was loaded into NuPAGE 4–12%, Bis-Tris Protein Gel (ThermoFisher Scientific) or NuPAGE 3–8%, Tris-Acetate Protein Gel (ThermoFisher Scientific), and blotted with primary antibodies. […]

GSPT1 = target: T2, GSPT1 (Homo sapiens, UniProt P15170); assay: GSPT1 level by proteomics and immunoblotting; type: cell-based; details: 2 μM
T2 construct: endogenous in cells; host or cells: RPMI-8402, SEM, VCaP
Experimental: as §1
NSD2 is the primary methyltransferase that transfers dimethyl to H3K36 in ALL with NSD2 gain-of-function mutation. Therefore, the effects of LLC0424 on H3K36me2 was evaluated in SEM and RPMI-8402 cells. […] Meanwhile, LLC0424 treatment also led to downregulation of H3K36Me2 in RPMI-8402 cells within 24 h (Figure 6B). […] We also conducted a colony formation assay to evaluate the effect of LLC0424 on the stem cell-like property of the leukemia cells. […] As LLC0424 leads to strong degradation of both NSD2-L and NSD2-S, the phenotypic changes upon LLC0424 treatment result from complete inactivation of NSD2 activity, including adaptor-like function of NSD2-S and SET-domain dependent enzymatic function of NSD2-L. The specific contributions of NSD2 isoforms warrant future investigation. To characterize the genes affected by LLC0424 treatment, we performed global transcriptome analysis of SEM cells treated by DMSO, LLC0424, or LLC0424N. LLC0424 treatment led to significant changes in the transcriptome of SEM cells with over 326 differentially expressed genes. […] We further explored the contribution of NSD2 loss to the phenotype we observed in SEM cells. […] Still, whether and how LLC0424’s modest effect on GSPT1 contributes to the cytotoxic effects remains to be further explored. We also designed and synthesized the negative control LLC0877 bearing the warhead that is devoid of NSD2 binding (SI, Figure S5A).
as §2

RPMI-8402 cells [1] = assay: Proliferation assay (CellTiter-Glo, 9 days), RPMI-8402; type: cell-based, human; details: 5 μM (Fig 6E) or 2 μM (Fig S4A)
Experimental: 2 × 10^3 cells per well were seeded in 5 replicates into 96-well plates and treated with 5 μM of the compound. Every 4 days, we added the compound with 5 μL of the 20* compound-containing mixture, reaching 1*concentration. Cell proliferation was evaluated by CellTiter-Glo assay (Promega).

RPMI-8402 cells [2] = assay: Colony formation in soft agar; type: cell-based, human; details: 30 days
Experimental: Colony formation in soft agar was conducted in 12-well plates, with the bottom layer containing 750 μL of 0.8% agarose in 10% FBS/cell media and the top layer containing 0.4% agarose (SEM cells or RPMI-8402 cells). LLC0424 was added every 3 days to the liquid layer on top agarose to reach a final concentration of 2 μM. At the 30 days of treatment, the cells were stained with iodonitrotetrazolium chloride (INT) by adding 500 μL 1× INT PBS solution into each well. After the staining, images were taken using brightfield microscope and plate scan was conducted using Epson Perfection V700 Photo. Colony number counting was performed using ImageJ.

SEM cells = assay: RNA-seq global transcriptome analysis; type: cell-based, human; details: 14 days of treatment, versus DMSO
Experimental: NSD2 is the primary methyltransferase that transfers dimethyl to H3K36 in ALL with NSD2 gain-of-function mutation. Therefore, the effects of LLC0424 on H3K36me2 was evaluated in SEM and RPMI-8402 cells. […] Meanwhile, LLC0424 treatment also led to downregulation of H3K36Me2 in RPMI-8402 cells within 24 h (Figure 6B). […] We also conducted a colony formation assay to evaluate the effect of LLC0424 on the stem cell-like property of the leukemia cells. […] As LLC0424 leads to strong degradation of both NSD2-L and NSD2-S, the phenotypic changes upon LLC0424 treatment result from complete inactivation of NSD2 activity, including adaptor-like function of NSD2-S and SET-domain dependent enzymatic function of NSD2-L. The specific contributions of NSD2 isoforms warrant future investigation. To characterize the genes affected by LLC0424 treatment, we performed global transcriptome analysis of SEM cells treated by DMSO, LLC0424, or LLC0424N. […]
Total RNA was isolated from cells using the miRNeasy Mini Kit (Qiagen). […] Paired-end libraries were sequenced with the Illumina HiSeq 2500 (2 × 100 nucleotide read length) with sequence coverage to 15–20 M paired reads. […] Then we performed the analysis in R. First, EdgeR (edgeR_3.39.6) was used to perform read counts normalization and filtering (counts >10) and then Limma-Voom (limma_3.53.10) was used to analyze differential expression.

[3] = compared to DMSO or LLC0424N-treated group

T2 sequence (P15170 whole entry): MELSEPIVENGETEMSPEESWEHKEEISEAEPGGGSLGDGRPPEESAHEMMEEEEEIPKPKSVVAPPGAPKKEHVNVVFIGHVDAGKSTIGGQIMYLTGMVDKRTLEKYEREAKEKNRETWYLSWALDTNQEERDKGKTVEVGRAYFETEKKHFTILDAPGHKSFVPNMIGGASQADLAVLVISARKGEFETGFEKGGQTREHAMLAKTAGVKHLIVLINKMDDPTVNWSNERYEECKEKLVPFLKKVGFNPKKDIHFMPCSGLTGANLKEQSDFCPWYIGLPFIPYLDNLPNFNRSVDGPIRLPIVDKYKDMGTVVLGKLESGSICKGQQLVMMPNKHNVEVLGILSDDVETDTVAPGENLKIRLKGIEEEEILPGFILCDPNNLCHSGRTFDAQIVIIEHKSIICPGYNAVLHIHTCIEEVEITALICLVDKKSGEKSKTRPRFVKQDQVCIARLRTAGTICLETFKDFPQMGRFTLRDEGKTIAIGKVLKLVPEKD
T1 sequence (Q96L73 whole entry): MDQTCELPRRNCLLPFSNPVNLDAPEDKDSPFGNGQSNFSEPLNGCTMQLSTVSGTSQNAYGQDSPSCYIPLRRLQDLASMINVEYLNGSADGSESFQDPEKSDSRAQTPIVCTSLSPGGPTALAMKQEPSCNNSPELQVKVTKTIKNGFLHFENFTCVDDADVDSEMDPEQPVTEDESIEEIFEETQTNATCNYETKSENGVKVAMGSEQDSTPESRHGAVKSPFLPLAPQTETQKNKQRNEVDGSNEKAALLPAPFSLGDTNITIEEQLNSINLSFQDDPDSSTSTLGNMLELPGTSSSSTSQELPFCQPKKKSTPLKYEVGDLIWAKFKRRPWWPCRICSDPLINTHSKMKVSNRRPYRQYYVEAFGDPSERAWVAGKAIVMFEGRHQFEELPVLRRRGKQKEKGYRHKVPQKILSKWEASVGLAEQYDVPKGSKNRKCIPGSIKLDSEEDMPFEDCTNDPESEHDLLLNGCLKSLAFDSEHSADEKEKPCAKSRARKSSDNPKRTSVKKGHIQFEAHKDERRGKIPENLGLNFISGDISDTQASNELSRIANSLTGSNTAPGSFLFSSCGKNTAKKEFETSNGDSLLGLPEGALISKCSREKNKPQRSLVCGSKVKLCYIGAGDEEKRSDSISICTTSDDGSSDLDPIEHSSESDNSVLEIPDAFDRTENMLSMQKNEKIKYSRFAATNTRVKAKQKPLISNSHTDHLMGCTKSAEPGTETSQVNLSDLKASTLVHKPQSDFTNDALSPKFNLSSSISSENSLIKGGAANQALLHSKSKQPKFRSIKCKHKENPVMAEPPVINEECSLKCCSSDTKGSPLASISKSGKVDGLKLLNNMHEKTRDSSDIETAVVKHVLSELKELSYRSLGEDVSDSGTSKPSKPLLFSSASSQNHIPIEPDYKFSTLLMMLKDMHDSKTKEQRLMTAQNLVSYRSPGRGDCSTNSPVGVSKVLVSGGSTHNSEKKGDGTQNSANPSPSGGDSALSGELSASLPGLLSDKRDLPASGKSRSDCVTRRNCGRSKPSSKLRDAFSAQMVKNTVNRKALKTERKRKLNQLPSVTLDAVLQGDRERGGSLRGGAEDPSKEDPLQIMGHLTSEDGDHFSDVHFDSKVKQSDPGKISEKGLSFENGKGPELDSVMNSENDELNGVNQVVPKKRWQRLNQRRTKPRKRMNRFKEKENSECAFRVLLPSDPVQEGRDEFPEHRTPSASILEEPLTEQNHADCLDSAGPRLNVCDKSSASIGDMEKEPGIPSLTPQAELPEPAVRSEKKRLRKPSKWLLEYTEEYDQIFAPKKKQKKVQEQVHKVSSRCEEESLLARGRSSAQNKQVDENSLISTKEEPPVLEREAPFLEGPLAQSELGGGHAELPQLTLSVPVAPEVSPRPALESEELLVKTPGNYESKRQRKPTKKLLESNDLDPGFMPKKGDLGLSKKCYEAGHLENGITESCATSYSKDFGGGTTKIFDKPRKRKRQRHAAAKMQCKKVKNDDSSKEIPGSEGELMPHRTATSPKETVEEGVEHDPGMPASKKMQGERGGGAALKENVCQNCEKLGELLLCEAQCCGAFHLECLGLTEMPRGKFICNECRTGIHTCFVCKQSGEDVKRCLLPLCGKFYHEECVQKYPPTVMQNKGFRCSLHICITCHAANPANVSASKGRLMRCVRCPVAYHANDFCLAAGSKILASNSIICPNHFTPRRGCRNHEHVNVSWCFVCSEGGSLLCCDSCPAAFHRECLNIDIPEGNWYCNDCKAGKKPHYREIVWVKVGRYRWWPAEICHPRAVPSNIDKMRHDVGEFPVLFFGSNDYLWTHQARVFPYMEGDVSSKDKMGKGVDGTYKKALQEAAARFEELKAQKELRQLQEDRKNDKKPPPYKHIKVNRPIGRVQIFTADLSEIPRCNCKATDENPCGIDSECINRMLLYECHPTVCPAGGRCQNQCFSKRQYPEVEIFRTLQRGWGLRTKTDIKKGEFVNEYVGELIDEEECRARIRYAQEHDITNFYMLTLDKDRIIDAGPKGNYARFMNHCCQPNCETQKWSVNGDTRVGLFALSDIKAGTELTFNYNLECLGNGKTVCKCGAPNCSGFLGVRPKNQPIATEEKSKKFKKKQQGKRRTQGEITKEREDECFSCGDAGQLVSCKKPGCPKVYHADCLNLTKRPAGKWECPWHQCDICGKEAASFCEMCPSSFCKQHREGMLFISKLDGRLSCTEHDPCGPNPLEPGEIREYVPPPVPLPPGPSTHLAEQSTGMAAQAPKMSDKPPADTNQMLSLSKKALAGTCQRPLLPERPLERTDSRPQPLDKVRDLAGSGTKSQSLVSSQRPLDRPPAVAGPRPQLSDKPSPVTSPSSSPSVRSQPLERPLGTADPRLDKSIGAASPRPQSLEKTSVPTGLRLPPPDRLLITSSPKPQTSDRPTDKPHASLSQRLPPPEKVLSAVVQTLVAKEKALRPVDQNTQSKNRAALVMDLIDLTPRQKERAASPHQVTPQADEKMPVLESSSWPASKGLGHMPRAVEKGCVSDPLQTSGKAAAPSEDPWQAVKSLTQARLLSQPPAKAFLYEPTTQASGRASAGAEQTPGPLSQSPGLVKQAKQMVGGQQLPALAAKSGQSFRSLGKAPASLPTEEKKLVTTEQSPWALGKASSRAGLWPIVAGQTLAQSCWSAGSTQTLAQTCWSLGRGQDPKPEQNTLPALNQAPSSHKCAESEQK

O=C1CCC(N2C(=O)c3ccc(N4CCC(NC(=O)c5ccc(NC(=O)c6ccc(CN(C(=O)c7ccc8c(c7)OCC(=O)N8)C7CC7)cc6)cc5)CC4)cc3C2=O)C(=O)N1 (stereo not drawn) [compound 10l, N-Cyclopropyl-N-(4-((4-((1-(2-(2,6-dioxopiperidin-3-yl)-1,3-dioxoisoindolin-5-yl)piperidin-4-yl)carbamoyl)phenyl)carbamoyl)benzyl)-3-oxo-3,4-dihydro-2H-benzo[b][1,4]oxazine-7-carboxamide]
NSD1 protein level (NSD1): remained unchanged
GSPT1 level (GSPT1; RPMI-8402 cells, global proteomics and immunoblotting): significant decrease
GSPT1 level on longer treatment (GSPT1; SEM cells, from 12 h): mild decrease
GSPT1 degradation (GSPT1; SEM or VCaP cells, as long as 8 h): did not induce GSPT1 degradation
cell growth on treatment for 9 days (RPMI-8402 cells [1]): significantly inhibited
formation of cell colonies (RPMI-8402 cells [2]; 2 μM, INT staining): significantly reduced the formation of cell colonies
colony area (RPMI-8402 cells [2]; [3]): obviously smaller colonies
colony numbers (RPMI-8402 cells [2]; [3]): significantly fewer cell colonies
differentially expressed genes (transcriptome) (SEM cells): over 326
